Measurements from patent US8829014B2, “Thiazole and thiophene analogues, and their use in treating autoimmune diseases and cancers” (Board of Supervisors of Louisiana State University and …, priority 2006, dated 2014).

How the values were obtained:
NF-κB = NF-κB inhibitor screen: basal NF-κB-dependent luciferase expression in HEK/NF-κB cell line; assay type: cell-based; conditions: 1 uM; determined as described in Example 398; read-out: NFkB inhibition @ 1 uM
How it was run: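 HEK293 cells stably carrying a luciferase reporter under six NF-κB elements were treated with compound, unstimulated, 24 h after plating. Compounds were first tested at 1.0 μM (0.3% DMSO), later at six doses from 10 to 3300 nM, in triplicate. Brite-Glo luciferase signal was normalized to DMSO, or to the lowest dose for dose-response runs.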

AP-1 = AP-1 inhibitor screen: basal AP-1-dependent luciferase expression in HEK/AP-1 cell line; assay type: cell-based; conditions: AP1; 1 uM; determined as described in Example 398
How it was run: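 HEK293 cells stably carrying a luciferase reporter driven by three AP-1 elements were plated 24 hr, then given compound at 1.0 μM in 0.3% DMSO for 48 hr, in triplicate. Basal expression without stimulus was read as luminescence (Brite-Glo), normalized to DMSO; dose-response runs repeated two to four times.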

Row | Structure (SMILES) | melting point [°C] | inhibition at 1 µM (NF-κB) [%] | inhibition at 1 µM (AP-1) [%]
1 | CNc1nc(C)c(-c2nc3ccccc3c(=O)n2-c2cccc(C)c2)s1 [Example 181, 2-(4-methyl-2-methylamino-thiazol-5-yl)-3-m-tolyl-3H-quinazolin-4-one] | > 275 | 10 | 20
2 | Cc1cccc(-n2c(-c3sc(NC(=O)c4ccccc4)nc3-c3ccccc3)nc3ccccc3c2=O)c1 [Example 188, N-[5-(4-Oxo-3-m-tolyl-3,4-dihydro-quinazolin-2-yl)-4-phenyl-thiazole-2-yl]benzamide] | > 275 | 42 | 63
3 | COc1cccc(-n2c(-c3sc(NC(=O)c4ccccc4)nc3-c3ccccc3)nc3ccccc3c2=O)c1 [Example 214, N-[5-(4-Oxo-3-(3-methoxyphenyl)-3,4-dihydro-quinazolin-2-yl)-4-phenyl-thiazole-2-yl]benzamide] | 195 to 196 | 34 | 30
4 | COC(=O)Nc1nc(-c2ccccc2)c(-c2nc3ccccc3c(=O)n2-c2ccccc2Cl)s1 [Example 232, [5-(4-Oxo-3-(2-chloro-phenyl)-3,4-dihydro-quinazolin-2-yl)-4-phenyl-thiazol-2-yl]-carbamic acid methyl ester] | > 275 | 55 | 67
5 | Cc1ccc(C(=O)Nc2nc(-c3ccccc3)c(-c3nc4ccccc4c(=O)n3-c3ccc(Cl)cc3)s2)cc1 [Example 254, 4-Methyl-N-[5-(4-oxo-3-(4-Chloro-phenyl)-3,4-dihydroquinazolin-2-yl)-4-phenyl-thiazol-2-yl]-benzamide] | > 275 | 0 | 2
6 | CC(=O)c1ccc(-n2c(-c3sc(NC(=O)c4ccccc4)nc3-c3ccccc3)nc3ccccc3c2=O)cc1 [Example 268, N-[5-(4-Oxo-3-(4-acetyl-phenyl)-3,4-dihydro-quinazolin-2-yl)-4-phenyl-thiazole-2-yl]benzamide] | 250 to 252 | 18 | 44
7 | CC(=O)c1ccc(-n2c(-c3sc(NC(=O)c4ccc(C)cc4)nc3-c3ccccc3)nc3ccccc3c2=O)cc1 [Example 269, 4-Methyl-N-[5-(4-oxo-3-(4-acetyl-phenyl)-3,4-dihydroquinazolin-2-yl)-4-phenyl-thiazol-2-yl]-benzamide] | 266 to 267 | 27 | 1

The next lines start with results.

Row | melting point [°C] | Structure (SMILES) | inhibition at 1 µM (NF-κB) [%] | inhibition at 1 µM (AP-1) [%]
8 | > 275 | COC(=O)Nc1nc(-c2ccccc2)c(-c2nc3ccccc3c(=O)n2-c2ccccc2C)s1 [Example 172, [5-(4-Oxo-3-o-tolyl-3,4-dihydro-quinazolin-2-yl)-4-phenyl-thiazol-2-yl]-carbamic acid methyl ester] | 0 | 25
9 | > 275 | Cc1ccc(C(=O)Nc2nc(-c3ccccc3)c(-c3nc4ccccc4c(=O)n3-c3ccccc3C)s2)cc1 [Example 176, 4-Methyl-N-[5-(4-oxo-3-o-tolyl-3,4-dihydroquinazolin-2-yl)-4-phenyl-thiazol-2-yl]-benzamide] | -8 | 29
10 | 236 to 238 | Cc1cccc(-n2c(-c3sc(Nc4ccc(Cl)cc4)nc3C)nc3ccccc3c2=O)c1 [Example 183, 2-[2-(4-Chlorophenylamino)-4-methyl-thiazol-5-yl]-3-m-tolyl-3H-quinazolin-4-one] | 2 | 39
11 | 186 to 187 | CNc1nc(-c2ccccc2)c(-c2nc3ccccc3c(=O)n2-c2cccc(C)c2)s1 [Example 186, 2-(2-methylamino-4-phenyl-thiazol-5-yl)-3-m-tolyl-3H-quinazolin-4-one] | 23 | 10
12 | 225 to 228 | Cc1ccc(-n2c(-c3sc(Nc4ccccc4)nc3-c3ccccc3)nc3ccccc3c2=O)cc1 [Example 196, 3-p-Tolyl-2-(4-phenyl-2-phenylamino-thiazol-5-yl)-3H-quinazolin-4-one] | 38 | 10
13 | 228 to 229 | Cc1nc(Nc2ccccc2)sc1-c1nc2ccccc2c(=O)n1-c1ccccc1Cl [Example 229, 2-(4-Methyl-2-phenylamino-thiazol-5-yl)-3-(2-chloro-phenyl)-3H-quinazolin-4-one] | 6 | 21
14 | 271 to 273 | CC(=O)c1ccc(-n2c(-c3sc(Nc4ccccc4)nc3C)nc3ccccc3c2=O)cc1 [Example 262, 2-(4-Methyl-2-phenylamino-thiazol-5-yl)-3-(4-acetyl-phenyl)-3H-quinazolin-4-one] | 15 | 7
15 | 239 to 240 | CNc1nc(-c2ccccc2)c(-c2nc3ccccc3c(=O)n2-c2ccc(C(C)=O)cc2)s1 [Example 266, 2-(2-Methylamino-4-phenyl-thiazol-5-yl)-3-(4-acetyl-phenyl)-3H-quinazolin-4-one] | 4 | 15
16 | 223 to 225 | CC(=O)c1ccc(-n2c(-c3sc(Nc4ccccc4)nc3-c3ccccc3)nc3ccccc3c2=O)cc1 [Example 267, 3-(4-acetyl-phenyl)-2-(4-phenyl-2-phenylamino-thiazol-5-yl)-3H-quinazolin-4-one] | 43 | 19
